Experimental data from patent US20230096766A1, “AMINO ACID HAVING FUNCTIONAL GROUP CAPABLE OF INTERMOLECULAR HYDROGEN BONDING, PEPTIDE COMPOUND CONTAINING SAME AND METHOD FOR PRODUCTION THEREOF” (Chugai Seiyaku Kabushiki Kaisha, priority 2018, published 2023).
*1 amine or outer side, *2 acyl side, *3 side chain or, on linkers, in order; H or OH if unused. Where a SMILES comes first, the peptide text is derived from it. Bridges are numbered along the chain shown (N, C = ends). [ ]: non-standard residue; d: D form. The star is where a group is joined. ξ: configuration not given here. Glu(NHSO2Me) = CS(=O)(=O)NC(=O)CC[C@H](N)C(=O)O; X11 = CNC(=O)c1ccc(CCN(CC(=O)[*:2])[*:1])cc1OC; NMePhe(3-Cl) = CN[C@@H](Cc1cccc(Cl)c1)C(=O)O; X12 = O=C([C@H](CCCC(O)C(F)(F)F)N[*:1])[*:2]; Tyr(3-F) = N[C@@H](Cc1ccc(O)c(F)c1)C(=O)O; Tyr(3-OMe) = COc1cc(C[C@H](N)C(=O)O)ccc1O; NMeW = CN[C@@H](Cc1c[nH]c2ccccc12)C(=O)O; X9 = O=C([C@@H](CN[*:1])COCCO)[*:2]; NMeF = CN[C@@H](Cc1ccccc1)C(=O)O; NMeGABA = CN(CCCC(=O)[*:2])[*:1]; NMeξIle = CC[C@H](C)C(NC)C(=O)O; Butyl(3-Me,3-OH) = CC(C)(O)CC*; NMeD = CN[C@@H](CC(=O)O)C(=O)O; NMeL = CN[C@@H](CC(C)C)C(=O)O; NMeV = CN[C@H](C(=O)O)C(C)C; ξIle = CC[C@H](C)C(N)C(=O)O; NMeAbu = CC[C@H](NC)C(=O)O; NMeA = CN[C@@H](C)C(=O)O; Piperidide = C1CCN(*)CC1; X8 = C1COC[C@@H](C*)N1; Me2NCH2CH2 = CN(C)CC*; NBuGly = CCCCNCC(=O)O; NPrGly = CCCNCC(=O)O; ξV = CC(C)C(N)C(=O)O; Sar = CNCC(=O)O; tBu = CC(C)(C)*

Test: in vitro
Settings: human

SMILES | Papp (Caco-2, Caco-2 (cm/sec)) [×10⁻⁶ cm/s] | other results
CCCN1CC(=O)N(C)[C@@H](CC(C)C)C(=O)N[C@@H](CC(C)C)C(=O)N(C)[C@@H](Cc2ccccc2)C(=O)N(C)[C@@H](CC(C)C)C(=O)N[C@H](C(=O)N2CCCCC2)CC(=O)N[C@H](CC(C)C)C(=O)N(C)[C@@H](Cc2ccccc2)C(=O)NC[C@@H](COCCO)C(=O)N(C)[C@@H](CC(C)C)C(=O)N[C@@H]([C@@H](C)O)C1=O [AP127] ([dL][NMeF][X9][NMeL]T[NPrGly][NMeL]L[NMeF][NMeL]D-Piperidide; lactam N-11) | 0.3 | –
CC(C)C[C@H]1C(=O)NCC(=O)N[C@H](C(=O)N(C)[C@@H](Cc2ccccc2)C(=O)N(C)[C@@H](Cc2ccccc2)C(=O)N[C@@H](C)C(=O)N2CCCCC2)CC(=O)N[C@@H](C)C(=O)N[C@@H]([C@@H](C)O)C(=O)N(C)[C@@H](C)C(=O)N(C)[C@@H](Cc2ccccc2)C(=O)N[C@@H](C(C)C)C(=O)N(C)[C@@H](Cc2ccccc2)C(=O)N1C [pd247] (AT[NMeA][NMeF]V[NMeF][NMeL]GD[NMeF][NMeF]A-Piperidide; lactam N-9) | – | Papp (Caco-2, Caco-2 (cm/sec) Papp): 0.087 ×10⁻⁶ cm/s
CC(C)C[C@H]1NC(=O)C[C@@H](C(=O)N2CCCCC2)NC(=O)[C@H](C)N(C)C(=O)[C@H](CC(C)C)N(C)C(=O)[C@H](COC(C)(C)C)NC(=O)[C@H](CC(C)C)N(C)C(=O)CN(C)C(=O)[C@H]([C@@H](C)O)NC(=O)[C@H](CC(C)C)N(C)C(=O)[C@H](Cc2ccc(O)c(F)c2)NC(=O)[C@H](Cc2ccccc2)N(C)C1=O [pd118] ([dL][NMeF][Tyr(3-F)][NMeL]T[Sar][NMeL]S(tBu)[NMeL][NMeA]D-Piperidide; lactam N-11) | 0.2 | –
CCCCN1CC(=O)N(C)[C@@H](CC(C)C)C(=O)N[C@@H](CC(C)C)C(=O)N(C)[C@@H](Cc2ccccc2)C(=O)N(C)[C@@H](C(C)C)C(=O)N[C@H](C(=O)N2CCCCC2)CC(=O)N[C@H](CC(C)C)C(=O)N(C)[C@@H](Cc2cccc(Cl)c2)C(=O)N[C@@H](CCC(=O)NS(C)(=O)=O)C(=O)N(C)[C@@H](CC(C)C)C(=O)N[C@@H]([C@@H](C)O)C1=O [pd59] ([dL][NMePhe(3-Cl)][Glu(NHSO2Me)][NMeL]T[NBuGly][NMeL]L[NMeF][NMeV]D-Piperidide; lactam N-11) | – | Papp (Caco-2, Caco-2): < 0.0088 ×10⁻⁶ cm/s
CCCCN1CC(=O)N(C)[C@@H](Cc2ccccc2)C(=O)N(C)[C@@H](CC(C)C)C(=O)N[C@@H](COC[C@@H]2COCCN2)C(=O)N(C)[C@@H](CC(C)C)C(=O)N[C@H](C(=O)N2CCCCC2)CC(=O)N(C)CC(=O)N(C)[C@@H](CC(C)C)C(=O)NC([C@@H](C)CC)C(=O)N(C)[C@@H](CC(C)C)C(=O)N[C@@H]([C@@H](C)O)C1=O (stereo partly drawn) [AP245] ([Sar][NMeL][ξIle][NMeL]T[NBuGly][NMeF][NMeL]S(X8)[NMeL]D-Piperidide; lactam N-11) | 0.1 | –
CC[C@H](C)[C@@H]1NC(=O)[C@H](CC(C)C)N(C)C(=O)CCCN(C)C(=O)C[C@@H](C(=O)N2CCCCC2)NC(=O)[C@H](CC(C)C)N(C)C(=O)[C@H](CC(C)C)N(C)C(=O)[C@H]([C@@H](C)O)NC(=O)[C@H](CC(C)C)N(C)C(=O)[C@H](Cc2ccc(O)c(OC)c2)NC(=O)[C@H](CC(C)C)N(C)C(=O)[C@H](Cc2ccccc2)N(C)C1=O [Compound E03] ([NMeGABA][NMeL]I[NMeF][NMeL][Tyr(3-OMe)][NMeL]T[NMeL][NMeL]D-Piperidide; lactam N-11) | 0.18 | –
CC[C@H](C)[C@@H]1NC(=O)[C@H](C(C)C)N(C)C(=O)CCCN(C)C(=O)C[C@@H](C(=O)N2CCCCC2)NC(=O)[C@H](CC(C)C)N(C)C(=O)[C@H](CC(C)C)N(C)C(=O)[C@H]([C@@H](C)O)NC(=O)[C@H](CC(C)C)N(C)C(=O)[C@H](COCCC(C)(C)O)NC(=O)[C@H](Cc2cccc(Cl)c2)N(C)C(=O)[C@H](Cc2ccccc2)N(C)C1=O [AP54] ([NMeGABA][NMeV]I[NMeF][NMePhe(3-Cl)]S(Butyl(3-Me,3-OH))[NMeL]T[NMeL][NMeL]D-Piperidide; lactam N-11) | 1.4 | –
CC[C@H](C)C1C(=O)N[C@@H]([C@@H](C)O)C(=O)N(C)CC(=O)N(C)[C@@H](CC(C)C)C(=O)N[C@H](C(=O)N2CCCCC2)CC(=O)N(C)[C@@H](C)C(=O)N[C@@H](CC(C)C)C(=O)N(C)[C@@H](CC(C)C)C(=O)N(C)[C@@H](Cc2c[nH]c3ccccc23)C(=O)N[C@@H](C(C)C)C(=O)N(C)[C@@H](CC(C)C)C(=O)N1C (stereo partly drawn) [pd102] ([NMeA]L[NMeL][NMeW]V[NMeL][NMeξIle]T[Sar][NMeL]D-Piperidide; lactam N-11) | 1.1 | –
CC[C@H]1C(=O)N[C@@H]([C@@H](C)O)C(=O)N(C)CC(=O)N(C)[C@@H](Cc2ccccc2)C(=O)N(C)[C@@H](CC(C)C)C(=O)N[C@@H](COC(C)(C)C)C(=O)N(C)[C@@H](CC(C)C)C(=O)N[C@H](C(=O)N2CCCCC2)CC(=O)N(CCc2ccc(C(=O)NC)c(OC)c2)CC(=O)N(C)[C@@H](CC(C)C)C(=O)N[C@@H](CC(C)C)C(=O)N1C [AP219] ([X11][NMeL]L[NMeAbu]T[Sar][NMeF][NMeL]S(tBu)[NMeL]D-Piperidide; lactam N-11) | 1.3 | –
CCCCN1CC(=O)N(C)[C@@H](CC)C(=O)N[C@@H](COC[C@@H]2COCCN2)C(=O)N(C)[C@@H](Cc2ccccc2)C(=O)N(C)[C@@H](CC)C(=O)N[C@H](C(=O)N2CCCCC2)CC(=O)N[C@H](CC(C)C)C(=O)N(C)[C@@H](CC(C)C)C(=O)N[C@@H]([C@@H](C)CC)C(=O)N(C)[C@@H](CC(C)C)C(=O)N[C@@H]([C@@H](C)O)C1=O [AP240] ([dL][NMeL]I[NMeL]T[NBuGly][NMeAbu]S(X8)[NMeF][NMeAbu]D-Piperidide; lactam N-11) | 0.08 | –
CC[C@H](C)C1C(=O)NC(C(C)C)C(=O)N(C)CC(=O)N(C)[C@@H](CC(C)C)C(=O)N[C@H](C(=O)N2CCCCC2)CC(=O)N(C)[C@@H](C)C(=O)N[C@@H](CCCC(O)C(F)(F)F)C(=O)N(C)[C@@H](CC(C)C)C(=O)N(C)[C@@H](Cc2ccccc2)C(=O)N[C@@H](CC(C)C)C(=O)N(C)[C@@H](Cc2ccccc2)C(=O)N1C (stereo partly drawn) [Compound D15] ([NMeA][X12][NMeL][NMeF]L[NMeF][NMeξIle][ξV][Sar][NMeL]D-Piperidide; lactam N-11) | – | Papp (Caco-2, Caco-2 (membrane permeability)): 0.61 ×10⁻⁶ cm/s
CCCN1CC(=O)N(C)[C@@H](CC(C)C)C(=O)N[C@@H](COC(C)(C)C)C(=O)N(C)[C@@H](Cc2ccccc2)C(=O)N(C)[C@@H](C(C)C)C(=O)N[C@H](C(=O)N2CCCCC2)CC(=O)N[C@H](C(C)C)C(=O)N(C)[C@@H](Cc2ccccc2)C(=O)N[C@@H](COCCN(C)C)C(=O)N(C)[C@@H](CC(C)C)C(=O)N[C@@H]([C@@H](C)O)C1=O [pd50] ([dV][NMeF]S(Me2NCH2CH2)[NMeL]T[NPrGly][NMeL]S(tBu)[NMeF][NMeV]D-Piperidide; lactam N-11) | – | Papp (Caco-2, Caco-2): 0.15 ×10⁻⁶ cm/s
CC(C)C[C@@H]1NC(=O)[C@H](Cc2ccccc2)N(C)C(=O)[C@H](COC(C)(C)C)NC(=O)[C@H](Cc2ccccc2)N(C)C(=O)[C@H](C)N(C)C(=O)[C@H](CC(C)C)N(C)C(=O)[C@H]2CCCN2C(=O)C[C@@H](C(=O)N2CCCCC2)N(C)C(=O)[C@H](Cc2ccccc2)N(C)C(=O)[C@H]([C@@H](C)O)NC(=O)[C@H](C(C)C)N(C)C1=O [pd219] ([dP][NMeL][NMeA][NMeF]S(tBu)[NMeF]L[NMeV]T[NMeF][NMeD]-Piperidide; lactam N-11) | 1.1 | –
